Measurements reported in US20110015162A1, “15,16-Methylene-17-hydroxy-19-nor-21-carboxylic acid-steroid Y-lactone derivative, use thereof and medicinal products containing the derivative” (Bayer Schering Pharma Aktiengesellschaft, priority 2007, published 2011).

What was measured:
[1] = molecular target: T1, progesterone receptor (Homo sapiens, UniProt P06401); test: Progesterone receptor binding test; conditions: for Progesterone receptor (PR) Competition factor: CF 1 = affinity of progesterone, CF >1 lower affinity, <1 higher affinity; for CF PR/CF MR: ratio of competition factors CF(PR) and CF(MR)
T1 construct: made in house; host or cells: Hi5 insect cells (cytosol)
T1 sequence (P06401 1-933): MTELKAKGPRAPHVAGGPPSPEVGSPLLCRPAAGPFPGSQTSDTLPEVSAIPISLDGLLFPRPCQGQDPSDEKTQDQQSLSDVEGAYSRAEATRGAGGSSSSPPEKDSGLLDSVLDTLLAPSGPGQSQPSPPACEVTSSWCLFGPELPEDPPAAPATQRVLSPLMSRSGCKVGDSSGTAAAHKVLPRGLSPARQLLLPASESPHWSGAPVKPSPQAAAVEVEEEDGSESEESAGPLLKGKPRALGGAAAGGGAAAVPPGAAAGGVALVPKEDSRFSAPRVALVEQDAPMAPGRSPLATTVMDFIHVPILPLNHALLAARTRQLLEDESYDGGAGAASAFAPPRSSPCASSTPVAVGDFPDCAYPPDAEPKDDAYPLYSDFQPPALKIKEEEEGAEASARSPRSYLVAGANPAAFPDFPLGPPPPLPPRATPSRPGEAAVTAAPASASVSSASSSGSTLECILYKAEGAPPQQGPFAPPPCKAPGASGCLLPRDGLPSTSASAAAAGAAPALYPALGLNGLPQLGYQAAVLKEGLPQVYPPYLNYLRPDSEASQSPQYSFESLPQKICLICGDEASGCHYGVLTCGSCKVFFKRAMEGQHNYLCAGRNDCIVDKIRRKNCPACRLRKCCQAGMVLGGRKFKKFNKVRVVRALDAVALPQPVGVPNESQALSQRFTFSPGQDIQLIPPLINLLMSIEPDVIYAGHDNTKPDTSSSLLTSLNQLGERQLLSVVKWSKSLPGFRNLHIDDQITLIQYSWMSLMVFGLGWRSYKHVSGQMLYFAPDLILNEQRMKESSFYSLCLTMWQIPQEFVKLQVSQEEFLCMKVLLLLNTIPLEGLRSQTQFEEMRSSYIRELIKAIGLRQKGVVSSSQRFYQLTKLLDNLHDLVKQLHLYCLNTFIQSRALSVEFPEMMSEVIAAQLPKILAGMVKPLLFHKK
Experimental: 1. Progesterone Receptor Binding Test:
(§1) Using cytosol from progesterone receptor-expressing insect cells (Hi5), competitive binding to the progesterone receptor was determined from the ability to displace ^3H-progesterone as reference substance from the receptor.

[2] = molecular target: T2, mineralocorticoid receptor (Homo sapiens, UniProt P08235); test: Mineralocorticoid receptor binding test; set-up: made in house; host or cells: Hi5 insect cells (cytosol); conditions: reference substance 3H-aldosterone, cytosol from MR-expressing insect cells (Hi5)
T2 sequence (P08235 1-984): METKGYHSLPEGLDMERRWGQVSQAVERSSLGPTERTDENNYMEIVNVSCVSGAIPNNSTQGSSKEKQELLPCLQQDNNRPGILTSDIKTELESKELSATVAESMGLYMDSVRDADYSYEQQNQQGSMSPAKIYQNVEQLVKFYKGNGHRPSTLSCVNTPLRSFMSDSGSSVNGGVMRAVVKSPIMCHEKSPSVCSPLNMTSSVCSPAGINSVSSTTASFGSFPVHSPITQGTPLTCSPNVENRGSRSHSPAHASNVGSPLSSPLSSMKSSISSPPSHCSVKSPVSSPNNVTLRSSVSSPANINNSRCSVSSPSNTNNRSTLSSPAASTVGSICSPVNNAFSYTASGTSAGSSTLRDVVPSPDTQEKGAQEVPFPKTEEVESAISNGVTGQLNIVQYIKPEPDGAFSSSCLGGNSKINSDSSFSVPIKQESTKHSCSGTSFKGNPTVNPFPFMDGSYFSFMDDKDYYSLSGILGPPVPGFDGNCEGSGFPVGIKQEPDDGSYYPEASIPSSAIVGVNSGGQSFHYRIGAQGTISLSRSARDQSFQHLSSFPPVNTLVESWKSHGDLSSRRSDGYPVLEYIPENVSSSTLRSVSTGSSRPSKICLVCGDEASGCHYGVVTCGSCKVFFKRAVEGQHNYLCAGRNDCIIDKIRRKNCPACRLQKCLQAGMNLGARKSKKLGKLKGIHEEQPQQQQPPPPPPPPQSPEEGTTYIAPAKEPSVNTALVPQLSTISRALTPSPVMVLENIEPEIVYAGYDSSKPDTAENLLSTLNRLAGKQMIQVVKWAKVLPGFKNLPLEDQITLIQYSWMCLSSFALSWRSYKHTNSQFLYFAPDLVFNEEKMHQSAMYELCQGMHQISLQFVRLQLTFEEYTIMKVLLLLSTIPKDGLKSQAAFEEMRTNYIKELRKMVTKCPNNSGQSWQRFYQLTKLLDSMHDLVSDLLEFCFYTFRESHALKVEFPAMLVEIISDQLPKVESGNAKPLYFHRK
Experimental: as §1
2. Mineralocorticoid Receptor Binding Test:
The test was carried out as in 1, with the following modifications: cytosol from mineralocorticoid receptor-expressing insect cells (Hi5) was used, and the reference substance was ^3H-aldosterone.

SMILES	IC50 [1] [nM]	Progesterone receptor (PR) Competition factor [1]	CF PR/CF MR [1]	Mineralocorticoid receptor (MR) Competition factor [2]
CC[C@@H]1CC2=CC(=O)CC[C@@H]2[C@H]2CC[C@@]3(CC)[C@@H]([C@@H]4C[C@@H]4[C@@]34C=CC(=O)O4)[C@H]12 [Example 5A, 17β-Hydroxy-7α-ethyl-18-methyl-15β,16β-methylene-19-nor-17α-pregna-4,20(Z)-dien-3-one-21-carboxylic acid γ-lactone]	300	12.00	12.00	1.0
CC[C@]12CC[C@H]3[C@H]([C@@H]1[C@@H]1C[C@@H]1[C@@]21C=CC(=O)O1)[C@H](C)CC1=CC(=O)CC[C@@H]13 [Example 4A, 7α,18-Bismethyl-17β-hydroxy-15β,16β-methylene-19-nor-17α-pregna-4,20(Z)-dien-3-one-21-carboxylic acid γ-lactone]	48	2.66	4.43	0.6
CC[C@]12CC[C@H]3[C@@H]([C@@H]4C[C@@H]4C4=CC(=O)CC[C@@H]43)[C@@H]1[C@@H]1C[C@@H]1[C@@]21C=CC(=O)O1 [Example 2, 6α,7α;15β,16β-Bismethylene-17β-hydroxy-18-methyl-19-nor-17α-pregna-4,20(Z)-dien-3-one-21-carboxylic acid γ-lactone]	630	24.37	5.54	4.4
C[C@]12CC[C@H]3[C@H]([C@@H]1[C@H]1C[C@H]1[C@@]21C=CC(=O)O1)[C@H](C1CC1)CC1=CC(=O)CC[C@@H]13 [Example 17A, 17β-Hydroxy-7α-cyclopropyl-15α,16α-methylene-19-nor-17α-pregna-4,20(Z)-dien-3-one-21-carboxylic acid γ-lactone]	280	12.24	4.71	2.6
C[C@]12CC[C@H]3[C@@H](CCC4=CC(=O)CC[C@@H]43)[C@@H]1[C@H]1C[C@H]1[C@@]21C=CC(=O)O1 [Example 12, 17β-Hydroxy-15α,16α-methylene-19-nor-17α-pregna-4,20(Z)-dien-3-one-21-carboxylic acid γ-lactone]	49	1.50	0.52	2.9
CC[C@]12CC[C@H]3[C@@H](CCC4=CC(=O)CC[C@@H]43)[C@@H]1[C@@H]1C[C@@H]1[C@@]21C=CC(=O)O1 [Example 9, 17β-Hydroxy-18-methyl-15β,16β-methylene-19-nor-17α-pregna-4,20(Z) dien-3-one-21-carboxylic acid γ-lactone]	78.5	1.65	1.50	1.1
C=C[C@@H]1CC2=CC(=O)CC[C@@H]2[C@H]2CC[C@@]3(C)[C@@H]([C@H]4C[C@H]4[C@@]34C=CC(=O)O4)[C@@H]21 [Example 16A, 17β-Hydroxy-7α-vinyl-15α,16α-methylene-19-nor-17α-pregna-4;20(Z)-dien-3-one-21-carboxylic acid γ-lactone]	85	3.76	1.88	2.0
CC[C@@H]1CC2=CC(=O)CC[C@@H]2[C@H]2CC[C@@]3(C)[C@@H]([C@@H]4C[C@@H]4[C@@]34C=CC(=O)O4)[C@H]12 [Example 24A, 7α-Ethyl-17β-hydroxy-15β,16β-methylene-19-nor-17α-pregna-4,20(Z)-dien-3-one-21-carboxylic acid γ-lactone]	1300	41.55	21.87	1.9
CC[C@@H]1CC2=CC(=O)CC[C@@H]2[C@H]2CC[C@@]3(C)[C@@H]([C@H]4C[C@H]4[C@@]34C=CC(=O)O4)[C@H]12 [Example 15A, 17β-Hydroxy-7α-ethyl-15α,16α-methylene-19-nor-17α-pregna-4,20(Z)-dien-3-one-21-carboxylic acid γ-lactone]	200	8.36	10.45	0.8
CC[C@]12CC[C@H]3[C@H]([C@@H]1[C@@H]1C[C@@H]1[C@@]21C=CC(=O)O1)[C@H](C1CC1)CC1=CC(=O)CC[C@@H]13 [Example 7A, 17β-Hydroxy-7α-cyclopropyl-18-methyl-15β,16β-methylene-19-nor-17α-pregna-4,20(Z)-dien-3-one-21-carboxylic acid γ-lactone]	380	14.22	3.03	4.7
C[C@@H]1CC2=CC(=O)CC[C@@H]2[C@H]2CC[C@@]3(C)[C@@H]([C@@H]4C[C@@H]4[C@@]34C=CC(=O)O4)[C@@H]21 [Example 23A, 17β-Hydroxy-7α-methyl-15β,16β-methylene-19-nor-17α-pregna-4,20(2)-dien-3-one-21-carboxylic acid γ-lactone]	120	3.79	1.99	1.9
